Reference: publication PMC3179953, “In Mycoplasma hominis the OppA-mediated cytoadhesion depends on its ATPase activity” (BMC Microbiology, 2011)

Target: T1, OppA^WT (OppA, P100), wild type purified from M. hominis (Metamycoplasma hominis, UniProt Q49551)
T1 construct: native lipoprotein, solubilised with N-dodecylmaltoside from membranes and isolated with sepharose-coupled antibody DC10; phosphorylated
Test: ammonium molybdate ATPase assay, inhibitor preincubated […] min
Type: biochemical
Conditions: 200 μM inhibitor

T1 sequence (Q49551 entry or part of it): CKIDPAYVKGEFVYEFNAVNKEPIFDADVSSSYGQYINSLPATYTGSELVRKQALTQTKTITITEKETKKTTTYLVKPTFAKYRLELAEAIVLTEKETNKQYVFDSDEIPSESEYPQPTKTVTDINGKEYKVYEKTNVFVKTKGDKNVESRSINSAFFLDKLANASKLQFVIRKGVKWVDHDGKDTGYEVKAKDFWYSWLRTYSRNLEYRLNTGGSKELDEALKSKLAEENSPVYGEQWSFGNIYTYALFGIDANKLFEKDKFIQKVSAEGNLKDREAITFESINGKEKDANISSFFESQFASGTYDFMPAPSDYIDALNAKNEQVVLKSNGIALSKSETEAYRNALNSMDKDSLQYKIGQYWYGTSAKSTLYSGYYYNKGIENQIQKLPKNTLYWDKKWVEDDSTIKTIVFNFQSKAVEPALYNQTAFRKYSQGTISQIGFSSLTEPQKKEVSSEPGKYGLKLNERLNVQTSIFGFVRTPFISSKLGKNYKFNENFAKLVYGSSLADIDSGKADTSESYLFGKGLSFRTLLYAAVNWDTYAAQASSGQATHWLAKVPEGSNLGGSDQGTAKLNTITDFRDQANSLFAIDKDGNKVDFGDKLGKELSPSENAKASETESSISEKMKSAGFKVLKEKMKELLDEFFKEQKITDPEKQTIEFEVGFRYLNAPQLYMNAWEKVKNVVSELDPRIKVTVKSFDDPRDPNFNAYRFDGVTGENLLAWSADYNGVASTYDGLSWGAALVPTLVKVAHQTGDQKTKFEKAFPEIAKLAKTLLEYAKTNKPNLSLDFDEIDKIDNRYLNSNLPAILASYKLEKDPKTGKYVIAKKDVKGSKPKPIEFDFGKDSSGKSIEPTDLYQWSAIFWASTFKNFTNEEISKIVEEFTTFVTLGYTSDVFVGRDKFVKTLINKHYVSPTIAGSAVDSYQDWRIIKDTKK

## O=S(=O)(O)c1cc(N=C=S)ccc1/C=C/c1ccc(N=C=S)cc1S(=O)(=O)O [DIDS, 4,4'-diisothiocyano-2,2'-stilbene-disulfonic acid]
  relative ATPase activity at 200 μM: OppA was neither able to hydrolyze ATP (Figure 3A)
